The text below walks through data of patent publication US11806363B1, “Green synthesis of silver nanoparticles using euphorbia dendroides aqueous extract” (King Faisal University, priority 2023, dated 2023).

For one experiment, the system named is HepG2 cells. The experiment can be described thus: MTT cytotoxicity assay, HepG2 cells. The class given is cell-based. Particulars: Homo sapiens, 48 h treatment, triplicate, mean ±SD, read-out: IC50 (50% inhibition of cancer cell growth).
The test system of a further experiment is HCT-116 cells. The experiment can be described thus: MTT cytotoxicity assay, HCT-116 cells. The class given is cell-based. To be noted: Homo sapiens; HCT-116, MTT, 48 h treatment, triplicate, mean ±SD; read-out: IC50 (50% inhibition of cancer cell growth). On the technique in general: Tetrazolium assays rely on reduction of a dye to a coloured formazan, in cell work by metabolically active cells.

Values after ≈ are worked out from the molar mass of the structure shown.

Usually IC50 stands for the point on the concentration scale where inhibition reaches its midpoint.

For `COc1cccc2c1C(=O)c1c(O)c3c(c(O)c1C2=O)C[C@@](O)(C(=O)CO)C[C@@H]3O[C@H]1C[C@H](N)[C@H](O)[C@H](C)O1` [DOX, doxorubicin], the IC50 in the experiment on HepG2 cells was determined as 0.38 ± 0.07 µg/mL (≈ 0.699 µM); in the experiment on HCT-116 cells, 0.86 ± 0.16 µg/mL (≈ 1.58 µM).
